Assay: mn = molality of the nth substance listed, in mol/kg
Details: Liquid, Vibrating tube method

[Cl-].[Cl-].[Zn+2] [zinc chloride] + CO
Details	mass density [kg/m3]
348.27 K, 19998 kPa, m1 = 0.1348	775.25
348.27 K, 20001 kPa, m1 = 5.367	1160.36
348.27 K, 20003 kPa, m1 = 1.039	851.34
348.27 K, 24987 kPa, m1 = 1.977	930.28
348.27 K, 24989 kPa, m1 = 0.8018	837.48
348.27 K, 24994 kPa, m1 = 0.1348	780.25
348.27 K, 24994 kPa, m1 = 1.039	856.19
348.27 K, 24996 kPa, m1 = 0.4768	810.44
348.27 K, 25001 kPa, m1 = 5.367	1164.74
348.27 K, 29985 kPa, m1 = 0.4768	815.14
348.27 K, 29987 kPa, m1 = 0.8018	842.17
348.27 K, 29990 kPa, m1 = 1.977	934.86
348.27 K, 29998 kPa, m1 = 0.1348	785.01
348.27 K, 30011 kPa, m1 = 5.367	1169.01
348.27 K, 30014 kPa, m1 = 1.039	860.81
348.27 K, 34985 kPa, m1 = 1.977	939.27
348.27 K, 34987 kPa, m1 = 0.4768	819.64
348.27 K, 34988 kPa, m1 = 0.8018	846.66
348.27 K, 34990 kPa, m1 = 1.039	865.23
348.27 K, 34990 kPa, m1 = 5.367	1173.15
348.27 K, 34998 kPa, m1 = 0.1348	789.52
348.27 K, 39984 kPa, m1 = 5.367	1177.19
348.27 K, 39991 kPa, m1 = 1.039	869.48
348.27 K, 39993 kPa, m1 = 1.977	943.53
348.27 K, 39998 kPa, m1 = 0.1348	793.81
348.27 K, 39999 kPa, m1 = 0.8018	850.97
348.27 K, 40007 kPa, m1 = 0.4768	823.94
373.3 K, 523 kPa, m1 = 0.8018	783.25
373.3 K, 527 kPa, m1 = 0.4768	755.9
373.3 K, 527 kPa, m1 = 1.977	876.84
373.3 K, 533 kPa, m1 = 0.1348	725.48
373.3 K, 535 kPa, m1 = 5.367	1112.11
373.3 K, 536 kPa, m1 = 1.039	802.51
373.3 K, 4986 kPa, m1 = 5.367	1117.02
373.3 K, 4988 kPa, m1 = 1.039	808.88
373.3 K, 4990 kPa, m1 = 0.4768	762.64
373.3 K, 4994 kPa, m1 = 0.8018	789.83
373.3 K, 4995 kPa, m1 = 0.1348	732.41
373.3 K, 5003 kPa, m1 = 1.977	882.85
373.3 K, 9984 kPa, m1 = 0.4768	769.58
373.3 K, 9984 kPa, m1 = 0.8018	796.61
373.3 K, 9985 kPa, m1 = 0.1348	739.51
373.3 K, 9986 kPa, m1 = 1.977	889.12
373.3 K, 9995 kPa, m1 = 1.039	815.55
373.3 K, 10002 kPa, m1 = 5.367	1122.33
373.3 K, 14985 kPa, m1 = 0.4768	776
373.3 K, 14990 kPa, m1 = 5.367	1127.43
373.3 K, 15001 kPa, m1 = 0.1348	746.08
373.3 K, 15005 kPa, m1 = 0.8018	802.94
373.3 K, 15009 kPa, m1 = 1.039	821.76
373.3 K, 15009 kPa, m1 = 1.977	895.06
373.3 K, 19986 kPa, m1 = 0.1348	752.14
373.3 K, 19987 kPa, m1 = 0.4768	781.98
373.3 K, 20001 kPa, m1 = 1.039	827.53
373.3 K, 20005 kPa, m1 = 0.8018	808.85
373.3 K, 20008 kPa, m1 = 5.367	1132.37
373.3 K, 20012 kPa, m1 = 1.977	900.64
373.3 K, 24985 kPa, m1 = 0.4768	787.59
373.3 K, 24989 kPa, m1 = 1.039	832.97
373.3 K, 24990 kPa, m1 = 0.8018	814.38
373.3 K, 24992 kPa, m1 = 0.1348	757.83
373.3 K, 25001 kPa, m1 = 1.977	905.94
373.3 K, 25001 kPa, m1 = 5.367	1137.12
373.3 K, 29985 kPa, m1 = 0.1348	763.18
373.3 K, 29988 kPa, m1 = 1.977	910.98
373.3 K, 29993 kPa, m1 = 1.039	838.14
373.3 K, 29994 kPa, m1 = 5.367	1141.72
373.3 K, 29997 kPa, m1 = 0.8018	819.65
373.3 K, 30012 kPa, m1 = 0.4768	792.89
373.3 K, 34983 kPa, m1 = 0.8018	824.61
373.3 K, 34984 kPa, m1 = 1.039	843.03
373.3 K, 34986 kPa, m1 = 5.367	1146.17
373.3 K, 34987 kPa, m1 = 0.4768	797.89
373.3 K, 34997 kPa, m1 = 1.977	915.82
373.3 K, 35008 kPa, m1 = 0.1348	768.23
373.3 K, 39990 kPa, m1 = 1.039	847.71
373.3 K, 39991 kPa, m1 = 0.8018	829.37
373.3 K, 39993 kPa, m1 = 0.1348	773.04
373.3 K, 39995 kPa, m1 = 5.367	1150.53
373.3 K, 39997 kPa, m1 = 1.977	920.45
373.3 K, 40000 kPa, m1 = 0.4768	802.68
398.33 K, 893 kPa, m1 = 0.1348	695.88
398.33 K, 899 kPa, m1 = 5.367	1083.75
398.33 K, 904 kPa, m1 = 1.039	773.5
398.33 K, 905 kPa, m1 = 1.977	848.36
398.33 K, 907 kPa, m1 = 0.8018	754.11
398.33 K, 908 kPa, m1 = 0.4768	726.55
398.33 K, 4981 kPa, m1 = 0.4768	734.09
398.33 K, 4985 kPa, m1 = 1.977	854.8
398.33 K, 4988 kPa, m1 = 0.8018	761.4
398.33 K, 4994 kPa, m1 = 0.1348	703.77
398.33 K, 5002 kPa, m1 = 5.367	1088.78
398.33 K, 5004 kPa, m1 = 1.039	780.59
398.33 K, 9983 kPa, m1 = 0.4768	742.44
398.33 K, 9984 kPa, m1 = 0.1348	712.39
398.33 K, 9984 kPa, m1 = 0.8018	769.52
398.33 K, 9988 kPa, m1 = 5.367	1094.64
398.33 K, 9993 kPa, m1 = 1.039	788.48
398.33 K, 9999 kPa, m1 = 1.977	862.15
398.33 K, 14985 kPa, m1 = 1.039	795.7
398.33 K, 14988 kPa, m1 = 0.1348	720.18
398.33 K, 14993 kPa, m1 = 0.4768	750.05
398.33 K, 14994 kPa, m1 = 0.8018	776.95
398.33 K, 15018 kPa, m1 = 5.367	1100.25
398.33 K, 15019 kPa, m1 = 1.977	868.94
398.33 K, 19982 kPa, m1 = 0.8018	783.77
398.33 K, 19982 kPa, m1 = 1.039	802.38
398.33 K, 19984 kPa, m1 = 0.1348	727.3
398.33 K, 19994 kPa, m1 = 0.4768	757.02
398.33 K, 19996 kPa, m1 = 1.977	875.28
398.33 K, 20003 kPa, m1 = 5.367	1105.62
398.33 K, 24984 kPa, m1 = 1.039	808.61
398.33 K, 24989 kPa, m1 = 5.367	1110.77
398.33 K, 24992 kPa, m1 = 0.4768	763.47
398.33 K, 25003 kPa, m1 = 0.1348	733.89
398.33 K, 25006 kPa, m1 = 0.8018	790.16
398.33 K, 25009 kPa, m1 = 1.977	881.23
398.33 K, 29990 kPa, m1 = 1.977	886.89
398.33 K, 29994 kPa, m1 = 0.8018	796.1
398.33 K, 29996 kPa, m1 = 0.1348	740.01
398.33 K, 29996 kPa, m1 = 1.039	814.47
398.33 K, 29999 kPa, m1 = 5.367	1115.75
398.33 K, 30005 kPa, m1 = 0.4768	769.51
398.33 K, 34992 kPa, m1 = 0.4768	775.14
398.33 K, 34993 kPa, m1 = 0.1348	745.75
398.33 K, 35003 kPa, m1 = 5.367	1120.56
398.33 K, 35010 kPa, m1 = 1.039	819.97
398.33 K, 35011 kPa, m1 = 0.8018	801.72
398.33 K, 35014 kPa, m1 = 1.977	892.27
398.33 K, 39988 kPa, m1 = 1.977	897.37
398.33 K, 39989 kPa, m1 = 0.1348	751.12
398.33 K, 39992 kPa, m1 = 0.8018	807.01
398.33 K, 39994 kPa, m1 = 5.367	1125.22
398.33 K, 39997 kPa, m1 = 1.039	825.19
398.33 K, 40002 kPa, m1 = 0.4768	780.53
